The values below come from patent US5770410A, “Chiral synthesis with modified enzymes” (Genzyme Corporation, priority 1992, dated 1998).

Each structure is given as a SMILES string.

What all share (type): biochemical
For experiment [1], the target named is T1, Bacillus stearothermophilus lactate dehydrogenase loop exchange mutant SL1 (short loop) (Geobacillus stearothermophilus, UniProt P00344, A222G/A223G/C81T, form not given).
T1 construct: purified; +/- FBP
The experiment in a line: Steady-state kinetics, NADH-dependent reduction of 2-oxo acids (A340). The note with it: 25° C., pH 6. The method, then: (§1) Each pair of overlapping oligonucleotides (20 μM of each) were subjected to 30 cycles of annealing and extension (94° C. for 1 minute, cool to 45° C. for 2 minutes, 45° C. for 1 minute, heat to 72° C. in 1 minute, 72° C. for 1 minute in 50 μl containing 0.05M KCl , 10 mM Tris pH 8.3, 1.5 mM MgCl2, 0.01% gelatin), 200 μM of each dNTP and 2.5 units TAQ DNA polymerase). The double-stranded DNA product was purified and then cut with SacII and XbaI before ligating it into the plasmid pLDHrs cut with the same enzymes. The ligated products were restricted with MluI to cleave wild-type plasmid pLDHrs.
(§2) Overnight cultures (11) were centrifuged and the packed cells were resuspended in 50 mM triethanolamine, pH 6.0. The cells were sonicated and the debris was removed by centrifugation. The protein in the supernatant was precipitated by the addition of 65% ammonium sulphate. The precipitate was spun down and resuspended in 50 mM triethanolamine, pH 6.0 and dialysed against the same buffer. After dialysis, NADH and FBP were added to the protein to final concentrations of 5 mM and 10 mM before loading onto an oxamate Sepharose column which had been pre-equilibrated with 50 mM triethanoloamine, pH 6.0, 3 mM NADH and 5 mM FBP. After washing off unbound protein with column buffer mutant LDH was eluted with 50 mM triethanolamine, pH 9.0, 0.3 M NaCl. The elutant was precipitated with 65% ammonium sulphate and then resuspended in and dialysed against 50 mM triethanolamine, pH 7.5. The protein was then loaded onto a Q-Sepharose Fast Flow column and eluted with a salt gradient. LDH eluted at a concentration of 0.25M NaCl. For the double glycine mutant enzyme, the first chromatography procedure with oxamate Sepharose was replaced by chromatography on Blue Sepharose -F3GA, otherwise the procedure was essentially the same. All proteins were judged to be greater than 98% pure from the intensity of Coomassie blue staining on an SDS Phast gel (Pharmacia). The yield of protein was usually 0.2 g/l of original broth.
(§3) Steady-state measurements were made by following the reduction in absorbance at 340 nm in the NADH/NAD^+ conversion. All assays were at 25° C. in the buffer Bis-Tris, pH 6, (20 mM), containing KC1 (50 mM) and when used fructose-1,6-bisphosphate at 5 mM. Protein concentration was determined from the absorbance at 280 nm using the value of 0.91 for 1 mg/ml protein in 1 cm path and an Mr of 33,000.
(§4) The specific substrates used in the evaluations are shown in the left column of Table 4. In Table 4, "235/6GG" denotes the mutant enzyme formed by substituting GlyGly for AlaAla at the 235-236 positions of the enzyme (Wilks et al., Biochemistry 1990, 29, 8587-8591), and "WTrs" denotes a mutant derived from the wild-type strain as shown in FIG. 1 of Wilks et al., Biochemistry 1992, 31, 7802-7806.

Experiment [2] has as its target T2, Bacillus stearothermophilus lactate dehydrogenase loop exchange mutant SL2 (short loop) (Geobacillus stearothermophilus, UniProt P00344, A222G/A223G/C81T, form not given).
T2 construct: purified; +/- FBP
The experiment is described as above. The note with it: 25° C., pH 6. The method, then: as §1, §2, §3, §4

The target of experiment [3] is T3, Bacillus stearothermophilus lactate dehydrogenase, wild type, SEQ ID NO: 3 (Geobacillus stearothermophilus, UniProt P00344).
T3 construct: made in house; host or cells: E. coli
T3 sequence (P00344 whole entry): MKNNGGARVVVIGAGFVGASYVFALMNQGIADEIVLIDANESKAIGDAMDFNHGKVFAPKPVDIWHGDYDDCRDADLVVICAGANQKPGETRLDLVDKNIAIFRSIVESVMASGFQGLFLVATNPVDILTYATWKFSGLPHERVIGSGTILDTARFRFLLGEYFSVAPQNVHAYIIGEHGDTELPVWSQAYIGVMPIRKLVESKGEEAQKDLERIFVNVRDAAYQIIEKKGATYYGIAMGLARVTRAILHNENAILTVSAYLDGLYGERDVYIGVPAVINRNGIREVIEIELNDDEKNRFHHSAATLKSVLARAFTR
The description is as above. The note with it: estimate, steady state kinetic measurements. The protocol:
as §2, with “For the double glycine mutant enzyme, the first chromatography procedure with oxamate Sepharose was replaced by chromatography on Blue Sepharose -F3GA, otherwise the procedure was essentially the same. All proteins were judged to be greater than 98% pure from the intensity of Coomassie blue staining on an SDS Phast gel (Pharmacia). The yield of protein was usually 0.2 g/l of original broth.” left out
Steady-state measurements were made by following the reduction in absorbance at 340 nm in the NADH/NAD^+ conversion. […] Protein concentration was determined from the absorbance at 280 nm using the value of 0.91 for 1 mg/ml protein in 1 cm path and an Mr of 33,000. […]

Experiment [4] concerns the target T4, Bacillus stearothermophilus lactate dehydrogenase mutant MVS/GG (MetValSer for GlnLysPro at 102-105, GlyGly for AlaAla at 235-236) (Geobacillus stearothermophilus, UniProt P00344, A222G/A223G/K87V/P88S/Q86M).
T4 construct: made in house; host or cells: E. coli
The experiment in a line: Steady state kinetic measurements, reduction of 4-methyl-2-oxo-3-pentenoic acid. The method, then: The mutation where alanines at 235,236 are replaced by glycines has been combined with three mutations in the mobile polypeptide loop (residues 98-112), namely […] by methionine, lysine 103 by valine and proline 105 by serine (MVS/GG).
as §3
Reduction of 4-methyl-2-oxo-3-pentenoic acid using MVS/GG (the mutant enzyme formed by substituting MetValSer for GlnLysPro at the 102-105 positions and GlyGly for AlaAla at the 235-236 positions): […]

Experiment [5] relates to Bacillus stearothermophilus lactate dehydrogenase loop exchange mutant BIG LOOP (loop SEQ ID No: 10). The experiment in a line: Steady-state kinetics, NADH-dependent reduction of 2-oxo acids (A340). The note with it: 25° C., pH 6. The protocol: as §1, §2, §3, §4

T1 sequence (P00344 whole entry C81T/A222G/A223G, form open): as the sequence (P00344 whole entry) above, with C81T, A222G, A223G counted along it
T2 sequence (P00344 whole entry C81T/A222G/A223G, form open): as the sequence (P00344 whole entry) above, with C81T, A222G, A223G counted along it
T4 sequence (P00344 whole entry Q86M/K87V/P88S/A222G/A223G): as the sequence (P00344 whole entry) above, with Q86M, K87V, P88S, A222G, A223G counted along it

What is called Km is the concentration of substrate that gives half-maximal velocity. For `CCCCC(=O)C(=O)O` [KETO CAPROATE, α-ketocaproate], the Km in experiment [1] (+FBP (5 mM)) is 16 mM; in experiment [1] (-FBP) it was 20 mM; in experiment [2] (+FBP (5 mM)), 25 mM; in experiment [2] (-FBP) it was 60 mM.
As for `CC(C)=CC(=O)C(=O)O` [4-methyl-2-oxo-3-pentenoic acid], the turnover in experiment [3] is listed as 0.03 S^-1; in experiment [4] it was 1.2 S^-1.
For `CC(=O)C(=O)O` [PYRUVATE, pyruvate], the Km in experiment [1] (+FBP (5 mM)) was 0.08 mM; in experiment [2] (+FBP (5 mM)) it was 0.065 mM; in experiment [2] (-FBP), 0.5 mM.
For `CC(C)CC(=O)C(=O)O` [KETOISO CAPROATE, α-ketoisocaproate], the Km in experiment [1] (+FBP (5 mM)) is 20 mM; in experiment [1] (-FBP) it was 40 mM; in experiment [2] (+FBP (5 mM)) it was 25 mM; in experiment [2] (-FBP) it was 30 mM.
Broadly, the kcat is the number of substrate molecules converted per active site and unit of time at saturation. `O=C(O)C(=O)CCc1ccccc1` [2-OXO-4-PHENYL BUTANOATE, 2-oxo-4-phenyl butanoic acid]: the Km in experiment [5] (+FBP (5 mM)) was found to be 7 mM; in experiment [5] (-FBP) it was 12 mM; in experiment [1] (+FBP (5 mM)), 4 mM; in experiment [1] (-FBP), 4 mM; in experiment [2] (+FBP (5 mM)), 4 mM; in experiment [2] (-FBP) it was 4 mM. In addition, the kcat in experiment [5] (+FBP (5 mM)) worked out at 1.0 s⁻¹; in experiment [5] (-FBP) it was 0.1 s⁻¹; in experiment [1] (+FBP (5 mM)) it was 0.03 s⁻¹; in experiment [1] (-FBP) it was 0.002 s⁻¹; in experiment [2] (+FBP (5 mM)), 0.2 s⁻¹; in experiment [2] (-FBP), 0.01 s⁻¹. The “kcat /KM” value in experiment [5] (+FBP (5 mM)) is 143 M⁻¹ s⁻¹; in experiment [1] (+FBP (5 mM)), 7.5 M⁻¹ s⁻¹; in experiment [2] (+FBP (5 mM)) it was 50 M⁻¹ s⁻¹; in experiment [2] (-FBP), 2.5 M⁻¹ s⁻¹.
